Where a SMILES comes first, the peptide text is derived from it.
Experiments:
[1] = test system: Tryptase, from human lung; assay: Enzymatic assay, tryptase; settings: at 100 μM
[2] = biological target: Thrombin, from Human Plasma (Homo sapiens, UniProt P00734); assay: Enzymatic assay, thrombin
Chymase, from human skin = biological target: T1, Chymase, from human skin (Homo sapiens, UniProt P23946); assay: Enzymatic assay, chymase
T1 sequence (P23946 22-247): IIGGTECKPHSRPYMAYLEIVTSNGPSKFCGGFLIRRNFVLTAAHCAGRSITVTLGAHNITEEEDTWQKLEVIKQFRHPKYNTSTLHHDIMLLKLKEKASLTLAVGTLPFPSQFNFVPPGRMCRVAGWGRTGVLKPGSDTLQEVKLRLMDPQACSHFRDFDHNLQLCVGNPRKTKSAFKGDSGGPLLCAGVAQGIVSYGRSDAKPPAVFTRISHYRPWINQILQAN

HELA cells (Acc57) = assay: Cytotoxicity assay (MTT reduction), HELA cells; format: cell-based; settings: Hela cells
Procedure: The cytotoxicity of the peptides to HELA cells (Acc57) and COS-7 cells (CRL-1651) was determined using the MTT reduction assay [see ref. 2 and 3, below]. Briefly the method was as follows: HELA cells and COS-7 cells were seeded at 7.0×10^3 and, respectively, 4.5×10^3 cells per well and grown in 96-well microtiter plates for 24 hours at 37° C. at 5% CO2. At this point, time zero (Tz) was determined by MTT reduction (see below). The supernatant of the remaining wells was discarded, and fresh medium and the peptides in serial dilutions of 12.5, 25 and 50 μM were pipetted into the wells. Each peptide concentration was assayed in triplicate. Incubation of the cells was continued for 48 hours at 37° C. at 5% CO2. Wells were then washed once with phosphate buffered saline (PBS) and subsequently 100 μl MTT reagent (0.5 mg/ml in medium RPMI1640 and, respectively, DMEM) were added to the wells. This was incubated at 37° C. for 2 hours and subsequently the medium was aspirated and 100 μl isopropanol were added to each well. The absorbance at 595 nm of the solubilized product was measured (OD595peptide). For each concentration averages were calculated from triplicates. The percentage of growth was calculated as follows: (OD595peptide-OD595Tz-OD595Empty well)/(OD595Tz-OD595Empty well)×100% and was plotted for each peptide concentration.
The LC 50 values (Lethal Concentration, defined as the concentration that kills 50% of the cells) were determined for each peptide by using the trend line function of EXCEL (Microsoft Office 2000) for the concentrations (50, 25, 12.5 and 0 μM), the corresponding growth percentages and the value −50, (=TREND(C50:C0,%50:%0,−50)).
The GI 50 (Growth Inhibition) concentrations were calculated for each peptide by using a trend line function for the concentrations (50, 25, 12.5 and 0 μg/ml), the corresponding percentages and the value 50, (=TREND (C50:C0,%50:%0,50).

[3] = biological target: T2, CathepsinG, from human neutrophils (Homo sapiens, UniProt P08311); assay: Enzymatic assay, cathepsin G; settings: Cathepsin G IC50
T2 sequence (P08311 21-244): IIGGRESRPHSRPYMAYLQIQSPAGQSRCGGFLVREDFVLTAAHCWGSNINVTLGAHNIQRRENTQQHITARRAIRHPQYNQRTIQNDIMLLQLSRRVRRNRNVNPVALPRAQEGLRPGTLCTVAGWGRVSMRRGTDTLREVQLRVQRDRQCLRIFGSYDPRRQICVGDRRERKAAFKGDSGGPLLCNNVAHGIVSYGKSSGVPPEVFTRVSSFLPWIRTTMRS

[4] = biological target: Chymotrypsin, from human pancreas (Homo sapiens, UniProt P17538); assay: Enzymatic assay, chymotrypsin
Chymotrypsin, from human pancreas, sequence (P17538 19-263): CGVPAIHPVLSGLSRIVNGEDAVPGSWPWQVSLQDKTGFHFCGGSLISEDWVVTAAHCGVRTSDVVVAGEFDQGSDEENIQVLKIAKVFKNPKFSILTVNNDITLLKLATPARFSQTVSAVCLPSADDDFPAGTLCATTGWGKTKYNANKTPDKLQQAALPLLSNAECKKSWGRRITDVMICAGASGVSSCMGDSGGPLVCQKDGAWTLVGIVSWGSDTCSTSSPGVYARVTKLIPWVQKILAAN

[5] = biological target: Coagulation Factor Xa, from uman plasma (Homo sapiens, UniProt P00742); assay: Enzymatic assay, coagulation factor Xa
Coagulation Factor Xa, from uman plasma, sequence (P00742 235-488 limits assumed): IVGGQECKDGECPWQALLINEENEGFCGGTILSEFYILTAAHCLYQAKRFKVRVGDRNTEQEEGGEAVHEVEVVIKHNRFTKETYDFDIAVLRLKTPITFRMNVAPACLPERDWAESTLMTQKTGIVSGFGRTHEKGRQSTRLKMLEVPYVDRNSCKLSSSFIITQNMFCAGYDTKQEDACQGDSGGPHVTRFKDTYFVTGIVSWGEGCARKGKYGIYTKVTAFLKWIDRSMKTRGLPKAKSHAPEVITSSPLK
Coagulation Factor Xa, from uman plasma, sequence (P00742 41-179 limits assumed): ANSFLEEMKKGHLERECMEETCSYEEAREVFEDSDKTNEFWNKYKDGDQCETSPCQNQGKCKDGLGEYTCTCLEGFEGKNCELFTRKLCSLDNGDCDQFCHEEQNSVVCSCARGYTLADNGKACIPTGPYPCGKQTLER

[6] = biological target: Urokinase from human urine (Homo sapiens, UniProt P00749); assay: Enzymatic assay, urokinase
[7] = biological target: Trypsin, from human pancreas (Homo sapiens, UniProt P07477); assay: Enzymatic assay, trypsin; settings: at 100 μM
[8] = biological target: T3, Elastase from human neutrophils (Homo sapiens, UniProt P08246); assay: Enzymatic assay, elastase; settings: Elastase IC50
T3 sequence (P08246 30-267): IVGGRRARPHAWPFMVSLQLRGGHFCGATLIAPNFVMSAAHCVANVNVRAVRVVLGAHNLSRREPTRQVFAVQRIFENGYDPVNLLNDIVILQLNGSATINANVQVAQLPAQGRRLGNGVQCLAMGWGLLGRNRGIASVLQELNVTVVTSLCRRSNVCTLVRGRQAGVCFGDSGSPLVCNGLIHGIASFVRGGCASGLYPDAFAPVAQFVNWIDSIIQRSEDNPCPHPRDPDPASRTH

SMILES	Tryptase at 100 μM % [1]	Thrombin at 100 μM % [2]	Chymase at 100 μM % (Chymase, from human skin)	Cytotoxicity LC50/GI50 Hela cells (HELA cells (Acc57))	IC50 [3]	IC50 [4]	FXa at 100 μM % [5]	Urokinase at 100 μM % [6]	Trypsin at 100 μM % [7]	IC50 [8]
CCCC[C@@H]1NC(=O)[C@@H]2CCCN2C(=O)[C@H]2CCCN2C(=O)[C@H](Cc2ccccc2Cl)NC(=O)[C@@H]2CSSC[C@H](NC1=O)C(=O)N[C@@H]([C@@H](C)O)C(=O)N[C@@H](C)C(=O)N[C@@H](CO)C(=O)N[C@@H]([C@@H](C)CC)C(=O)N1CCC[C@H]1C(=O)N1CCC[C@H]1C(=O)N[C@@H](CCC(N)=O)C(=O)N2 [Ex. 96] (HELM PEPTIDE1{[Nle].C.T.A.S.I.P.P.Q.C.[O=C([C@H](Cc1ccccc1Cl)N[*:1])[*:2]].[dP].P}$PEPTIDE1,PEPTIDE1,2:R3-10:R3|PEPTIDE1,PEPTIDE1,1:R1-13:R2$$$V2.0)	0%	3.6%	0%	52 µM	21.2 µM	15.4 µM	0%	6.2%	7.5%	0.015 µM
CCCC[C@@H]1NC(=O)[C@@H]2CCCN2C(=O)[C@H]2CCCN2C(=O)[C@H](Cc2ccc(O)cc2)NC(=O)[C@@H]2CSSC[C@H](NC1=O)C(=O)N[C@@H]([C@@H](C)O)C(=O)N[C@@H](C)C(=O)N[C@@H](CO)C(=O)N[C@@H](C1CCCCC1)C(=O)N1CCC[C@H]1C(=O)N1CCC[C@H]1C(=O)N[C@@H](CCC(N)=O)C(=O)N2 [Ex. 84] (HELM PEPTIDE1{[Nle].C.T.A.S.[O=C([C@@H](N[*:1])C1CCCCC1)[*:2]].P.P.Q.C.Y.[dP].P}$PEPTIDE1,PEPTIDE1,2:R3-10:R3|PEPTIDE1,PEPTIDE1,1:R1-13:R2$$$V2.0)	4.2%	20.6%	0%	9 µM	20.2 µM	17.1 µM	13.3%	10.4%	10.8%	0.018 µM
CCCC[C@@H]1NC(=O)[C@@H]2CCCN2C(=O)[C@H]2CCCN2C(=O)[C@H](c2ccccc2)NC(=O)[C@@H]2CSSC[C@H](NC1=O)C(=O)N[C@@H]([C@@H](C)O)C(=O)N[C@@H](C)C(=O)N[C@@H](CO)C(=O)N[C@@H]([C@@H](C)CC)C(=O)N1CCC[C@H]1C(=O)N1CCC[C@H]1C(=O)N[C@@H](CCC(N)=O)C(=O)N2 [Ex. 98] (HELM PEPTIDE1{[Nle].C.T.A.S.I.P.P.Q.C.[Phg].[dP].P}$PEPTIDE1,PEPTIDE1,2:R3-10:R3|PEPTIDE1,PEPTIDE1,1:R1-13:R2$$$V2.0)	0%	5.2%	0%	78 µM	> 100 µM	38.8 µM	0%	0%	0%	0.021 µM
CCCC[C@@H]1NC(=O)[C@H](Cc2ccccc2)NC(=O)[C@H]2CCCN2C(=O)[C@H](Cc2ccc(O)cc2)NC(=O)[C@@H]2CSSC[C@H](NC1=O)C(=O)N[C@@H]([C@@H](C)O)C(=O)N[C@@H](C)C(=O)N[C@@H](CO)C(=O)N[C@@H]([C@@H](C)CC)C(=O)N1CCC[C@H]1C(=O)N1CCC[C@H]1C(=O)N[C@@H](CCC(N)=O)C(=O)N2 [Ex. 122] (HELM PEPTIDE1{[Nle].C.T.A.S.I.P.P.Q.C.Y.[dP].F}$PEPTIDE1,PEPTIDE1,2:R3-10:R3|PEPTIDE1,PEPTIDE1,1:R1-13:R2$$$V2.0)	0.2%	0%	6.4%	29 µM	35.1 µM	58 µM	19.6%	11.1%	19%	0.018 µM
CCCC[C@@H]1NC(=O)[C@@H]2CCCN2C(=O)[C@H]2CCCN2C(=O)[C@H](Cc2ccccc2)NC(=O)[C@@H]2CSSC[C@H](NC1=O)C(=O)N[C@@H]([C@@H](C)O)C(=O)N[C@@H](C)C(=O)N[C@@H](CO)C(=O)N[C@@H]([C@@H](C)CC)C(=O)N1CCC[C@H]1C(=O)N1CCC[C@H]1C(=O)N[C@@H](CCC(N)=O)C(=O)N2 [Ex. 90] (HELM PEPTIDE1{[Nle].C.T.A.S.I.P.P.Q.C.F.[dP].P}$PEPTIDE1,PEPTIDE1,2:R3-10:R3|PEPTIDE1,PEPTIDE1,1:R1-13:R2$$$V2.0)	5%	0%	0%	96 µM	67 µM	33.1 µM	5.5%	3.5%	5.2%	0.021 µM
CCCCCCCC[C@@H]1NC(=O)[C@@H]2CCCN2C(=O)[C@H]2CCCN2C(=O)[C@H](Cc2ccc(O)cc2)NC(=O)[C@@H]2CSSC[C@H](NC1=O)C(=O)N[C@@H]([C@@H](C)O)C(=O)N[C@@H](C)C(=O)N[C@@H](CO)C(=O)N[C@@H]([C@@H](C)CC)C(=O)N1CCC[C@H]1C(=O)N1CCC[C@H]1C(=O)N[C@@H](CCC(N)=O)C(=O)N2 [Ex. 102] (HELM PEPTIDE1{[CCCCCCCC[C@H](N[*:1])C(=O)[*:2]].C.T.A.S.I.P.P.Q.C.Y.[dP].P}$PEPTIDE1,PEPTIDE1,2:R3-10:R3|PEPTIDE1,PEPTIDE1,1:R1-13:R2$$$V2.0)	0%	1.7%	0%	55 µM	> 100 µM	4.98 µM	0%	0.5%	0%	0.013 µM
CCCC[C@@H]1NC(=O)[C@@H]2CCCN2C(=O)[C@H]2CCCN2C(=O)[C@H](Cc2ccc(O)cc2)NC(=O)[C@@H]2CSSC[C@H](NC1=O)C(=O)N[C@@H]([C@@H](C)O)C(=O)N[C@@H](C)C(=O)N[C@@H](CO)C(=O)N[C@@H]([C@@H](C)CC)C(=O)N1CCC[C@H]1C(=O)N1CC(NC(=O)c3ccccc3)C[C@H]1C(=O)N[C@@H](CCC(N)=O)C(=O)N2 (single isomer, unassigned) [Ex. 88]	0.6%	0.2%	0%	73 µM	> 100 µM	4.31 µM	3%	96%	6.4%	0.018 µM
CCCC[C@@H]1NC(=O)[C@@H]2CCCN2C(=O)[C@H]2CCCN2C(=O)[C@H](CC2CCCCC2)NC(=O)[C@@H]2CSSC[C@H](NC1=O)C(=O)N[C@@H]([C@@H](C)O)C(=O)N[C@@H](C)C(=O)N[C@@H](CO)C(=O)N[C@@H]([C@@H](C)CC)C(=O)N1CCC[C@H]1C(=O)N1CCC[C@H]1C(=O)N[C@@H](CCC(N)=O)C(=O)N2 [Ex. 97] (HELM PEPTIDE1{[Nle].C.T.A.S.I.P.P.Q.C.[Cha].[dP].P}$PEPTIDE1,PEPTIDE1,2:R3-10:R3|PEPTIDE1,PEPTIDE1,1:R1-13:R2$$$V2.0)	0%	11.6%	0%	100 µM	> 100 µM	77.4 µM	4.8%	11.9%	9.5%	0.024 µM
